Laboratory results published in US7902422B2 (priority 2004, dated 2011).
Where a SMILES comes first, the peptide text is derived from it. [ ]: non-standard residue; d: D form. The star is where a group is joined. Nva = CCC[C@H](N)C(=O)O; Cbz = O=C(OCc1ccccc1)*

Legend:
EIN3 protein [1] = experiment: EIN3 protein immunoblot, etiolated wild-type seedlings; type: in vivo, Arabidopsis
Method: With the exception of eto2 in Landsberg erecta (Ler) background, the ecotype Columbia (Col-0) was the parent strain for all mutant and transgenic lines described herein. Arabidopsis seeds were surface-sterilized and plated on the surface of MS medium (4.3 g MS salts, 10 g sucrose, pH 5.7, 8 g bactoagar per liter). After 3-4 days in the light at 4° C., the plates were wrapped in foil and kept in a 24° C. incubator before the phenotypes of seedlings were analyzed. For propagation, seedlings from plates were transferred to soil (Promix-HP) and grown to maturity at 22° C. under a 16 hr light/8 hr dark cycle.
(§1) Ethylene treatment of Arabidopsis seedlings grown on plates was performed in containers by flowing through hydrocarbon-free air supplemented with 10 ppm (parts per million) ethylene or were treated with hydrocarbon-free air alone (Kieber et al., Cell 72, 427-441, 1993). For drug treatments, Arabidopsis suspension cell cultures were treated with MG132 (50 μM), MG115 (50 μM), Pefabloc SC (100 μM) or DMSO (0.1%) for a time course study. Alternatively, etiolated seedlings were germinated for three days on a disc of Whatman paper resting on the surface of MS medium. MG132 (50 μM), MG115 (50 μM), Pefabloc SC (100 μM) or DMSO (0.1%) was added to the paper discs for 4 hr. Cycloheximide (100 μM) was added to the paper discs and ethylene or air was applied for different amounts of time.

EIN3-GFP fusion protein [2] = experiment: EIN3-GFP nuclear accumulation, fluorescence microscopy of transgenic seedlings; type: in vivo, Arabidopsis; settings: for abundance of EIN3-GFP in the nucleus: hypocotyl and root cells, ACC 50 μM or MG132 50 μM, absence of ethylene for MG132
Method: Transgenic seedlings that expressed a functional EIN3-GFP fusion protein were mounted on glass slides using PBS as a mounting medium. All images were collected on a fluorescence microscope (Olympus BX60) and the color of the images was artificially added in Photoshop 5.0 (Adobe Systems). For the time course experiment, after the first cell image was taken, 50 μM of ACC or MG132 was applied to the slide and the same cell was followed for 4 hr.

EIN3 protein [3] = experiment: EIN3 protein immunoblot, Arabidopsis suspension cell cultures; type: cell-based; settings: suspension cells; MG132 50 μM (after 30 min), MG115 50 μM, Pefabloc SC 100 μM
Method: as §1

[4] = tested on: transgenically overexpressed EIN3 protein; type: in vivo, Arabidopsis; settings: for abundance of transgenically overexpressed EIN3 protein: EIN3ox seedlings grown in air, MG132 50 μM, MG115 50 μM, Pefabloc SC 100 μM, 4 hr
Method: as §1

EBF1 gene = settings: in vivo
Method: (§2) (A) Alignment of EBF1 (SEQ ID NO: 2) and EBF2 (SEQ ID NO: 4) amino acid sequences generated with ClustalW program. Identical amino acid residues in the two proteins are highlighted with black boxes. […] (B) Alignment of F-box motif sequences. […] Identities and similarities among the different proteins are highlighted by black and gray, respectively. Consensus residues are denoted by asterisks. […] Etiolated wild-type seedlings were treated with air (air) or ethylene (C2H4) for 4 hr before RNA was extracted for analysis. Each treatment was performed in replicate. The means of normalized intensity were used to indicate relative expression levels.

EBF2 gene = settings: in vivo
Method: as §2

EIN3-GFP fusion protein [5] = settings: immunoblot, ethylene treatment
Method: Protein samples were prepared by homogenizing the powdered tissues in 2×SDS-PAGE sample buffer and boiling the homogenate for 5 min. After centrifugation, the protein extracts were fractionated by 4-12% gradient Tris-Glycine Novex precast gels (Invitrogen), blotted onto a nitrocellulose filter. The blot was probed first with anti-EIN3 antibody, and was subsequently stripped with 0.2 N glycine (pH 2.5) for 3 times and re-probed with either anti-CRY1 antibody (Lin et al., Proc Natl Acad Sci 92, 8423-8427, 1995) or anti-SUB1 antibody (Guo et al., Science 291, 487-490, 2001)
The triple response phenotype was scored in T2 seedlings originated from individual Kanamycin-resistant T1 plants. Transgenic seedlings that expressed a functional EIN3-GFP fusion protein were mounted on glass slides using PBS as a mounting medium. […] For the time course experiment, after the first cell image was taken, 50 μM of ACC or MG132 was applied to the slide and the same cell was followed for 4 hr.

NC1(C(=O)O)CC1 [ACC, aminocyclopropane-1-carboxylic acid]
levels of EIN3 protein (EIN3 protein [1]; wild-type seedlings on medium with high concentrations of ACC (10 and 50 μM), 3 days): dramatically elevated
time of ACC treatment after which EIN3-GFP accumulated in the nucleus (EIN3-GFP fusion protein [2]; 50 μM ACC, time course, same cell followed for 4 hr): 1 h
abundance of EIN3-GFP in the nucleus (EIN3-GFP fusion protein [2]): substantially enhanced

CCC[C@@H](C=O)NC(=O)[C@H](CC(C)C)NC(=O)[C@H](CC(C)C)NC(=O)OCc1ccccc1 [MG115] (Cbz-Leu-Leu-[Nva]-aldehyde)
levels of EIN3 protein (EIN3 abundance) (EIN3 protein [3]): enhanced EIN3 abundance
abundance of transgenically overexpressed EIN3 protein [4]: similarly induced

CC(C)C[C@@H](C=O)NC(=O)[C@H](CC(C)C)NC(=O)[C@H](CC(C)C)NC(=O)OCc1ccccc1 [MG132] (Cbz-Leu-Leu-Leu-aldehyde)
levels of EIN3 protein (EIN3 abundance) (EIN3 protein [3]): markedly increased
abundance of transgenically overexpressed EIN3 protein [4]: similarly induced
abundance of EIN3-GFP in the nucleus (EIN3-GFP fusion protein [2]): rapid nuclear accumulation

Cl.NCCc1ccc(S(=O)(=O)F)cc1 [Pefabloc]
levels of EIN3 protein (EIN3 abundance) (EIN3 protein [3]): no effect
abundance of transgenically overexpressed EIN3 protein [4]: not

C=C [ethylene, Ethylene]
levels of EIN3 protein with de novo translation blocked (EIN3 protein [1]; ethylene-pretreated (2 hr) wild-type seedlings, 100 μM cycloheximide, kept in ethylene): remained constitutively high
level of EIN3 protein (EIN3 protein [1]; wild-type plants, ethylene gas 10 ppm, after 1 hr): markedly increased
levels of transgenically overexpressed EIN3 protein ([4]; EIN3ox plants, ethylene gas 10 ppm): up-regulated
RNA level of EBF1 gene (EBF1 gene): induced
RNA level of EBF2 gene (EBF2 gene): induced
level of EIN3-GFP fusion protein (EIN3-GFP fusion protein [5]): dramatically increased

O=[N+]([O-])[O-].[Ag+] [silver ion, AgNO3]
ethylene-induced EIN3 accumulation (EIN3 protein [1]; wild-type seedlings on MS medium with 100 μM AgNO3 for 3 days, ethylene 4 hr): no longer induced by ethylene
